Article PMC7865305, “Pseudopeptide Amyloid Aggregation Inhibitors: In Silico, Single Molecule and Cell Viability Studies” (International Journal of Molecular Sciences, 2021)
Square brackets hold non-standard residues; d marks the D form. Peptide text beside a SMILES is read from it. * marks the point of attachment. NMeF = CN[C@@H](Cc1ccccc1)C(=O)O; Myristoyl = CCCCCCCCCCCCCC(=O)*; NMeL = CN[C@@H](CC(C)C)C(=O)O; Orn = NCCC[C@H](N)C(=O)O; Dab = NCC[C@H](N)C(=O)O; βAla = NCCC(=O)O

Legend:
HT22 cells [1] = assay: SG inhibitor toxicity, MTT assay; assay type: cell-based, mouse; conditions: 24 h; for HT22 cell viability, inhibitor alone: HT22 cells, 2.5, 5.0 and 10.0 µM, MTT, n = 4, vs control, one-way ANOVA with Dunnett
Method: (§1) The MTT assay was used to evaluate the viability of HT22 cells exposed to inhibitor or mixtures of inhibitor with full length Aβ(1–42). HT22 cells were plated into 96-well cell culture plates at a cell density of 100,000 cells/mL in full growth media (DMEM/F12, with 10% FBS, 1% Pen/Strep) at 37°C, 5% CO2, until 80% confluence (20–22 h). Full growth media was exchanged for treatment media (containing Aβ or Aβ with SG inhibitor). After treatment, cells are then returned to incubator for 24 h. The media was then exchanged for phenol red-free DMEM/F12 containing 0.5 mg/mL MTT. Cells were returned to the incubator to metabolize the MTT for 3.5 h, after which, cells were solubilized in isopropanol, with 10% Triton X-100 and 0.1 M HCl. After solubilization, absorbance from the 96-well plates was read in Molecular Dynamics™ plate reader at 570 nm and 690 nm. The signal at 690 nm and media control was subtracted from the 570 nm reading prior to analysis. HT22 cells were a generous gift from Dr. Robert Cumming, PhD, University of Western Ontario.
Inhibitor toxicity to HT22 cells was assessed by treating cells with inhibitor (SGA1, Myr-SGA1, SGA3, Myr-SGA3 or SGC1) at concentrations of 2.5, 5.0 and 10.0 µM for 24 h in triplicates, for n = 4 repeats. One-way ANOVA with Dunnett’s multiple comparisons test was performed to establish significance between inhibitor groups and vehicle-treated control, threshold for significance: α = 0.05. To assess SG inhibitor neuroprotection against Aβ(1–42) oligomers, Aβ(1–42) alone or Aβ(1–42) mixed with each inhibitor at the ratios described above were applied to cells in quadruplicates for n = 3 repeats. One-way ANOVA with Dunnett’s multiple comparisons was performed to establish significance between Aβ-SG inhibitor mixture and Aβ-treated control; threshold for significance: α = 0.05.

HT22 cells [2] = assay type: cell-based, mouse; conditions: MTT; for HT22 cell viability with Aβ(1–42) and myristoylated inhibitor: 5 µM Aβ(1–42) with Myr-SG inhibitor, 24 h, Figure 7B, n = 3
Method: as §1
Aβ(1–42) oligomers were prepared following protocols adapted from Stine et al.. Briefly, Aβ(1–42) was dissolved in HFIP to 1 mg/mL solution and aliquoted into microcentrifuge tubes, and allowed to evaporate under desiccant for 24 h, leaving behind a thin film of Aβ(1–42) monomers, which was stored at […] under desiccant. Immediately prior to use, Aβ(1–42) monomers were suspended in dimethyl sulfoxide (DMSO) at a concentration of 5 mM, vortexed for 30 s, pulse centrifuged for 30 s and then sonicated for 10 min at room temperature. The 5 mM Aβ(1–42) monomer solution prepared in DMSO was then diluted to 100 µM in cold DMEM/F12 media, then further diluted to 5 µM in fresh DMEM/F12 or DMEM/F12 containing SG inhibitor at various concentrations corresponding to a final ratio of 5:1, 2:1, 1:1 and 1:2 Aβ to SG. […]
Inhibitor toxicity to HT22 cells was assessed by treating cells with inhibitor (SGA1, Myr-SGA1, SGA3, Myr-SGA3 or SGC1) at concentrations of 2.5, 5.0 and 10.0 µM for 24 h in triplicates, for n = 4 repeats. […]

[3] = test system: Aβ(1–42)-Aβ(1–42) dimerization; set-up: method as in 2 sources, ref [21] = [21]; PMID 24321883; doi:10.1016/j.bios.2013.10.060; 21. Hane F.T. Lee B.Y. Petoyan A. Rauk A. Leonenko Z. Testing synthetic amyloid-β aggregation inhibitor using single molecule atomic force spectroscopy Biosens. Bioelectron. 2014 54 492 498 10.1016/j. ||| ref [30] = [30]; PMID 28844735; doi:10.1016/j.bbapap.2017.07.022; 30. Robinson M. Mehrazma B. Opare S.K.A. Petoyan A. Lou J. Hane F.T. Rauk A. Leonenko Z. Pseudo-peptide Amyloid-β Blocking Inhibitors: Molecular Dynamics and Single Molecule Force Spectroscopy Study B; conditions: cited from earlier work; for Shift of Aβ binding probability across unbinding force distribution / Binding probability of Aβ: SMFS, ref [30]; for Binding probability of Aβ: no significant difference between inhibitors
Aβ(1–40) = conditions: ThT fluorescence, 25 μM Aβ(1–40), 37 °C, 5 to 7 days; ref [33]; cited from earlier work
Method: (§2) Experimental validation of the effect of SGA1 on amyloid aggregation and structure was performed previously by several methods: including ThT fluorescence, circular dichroism (CD), Western blot and AFM imaging. The influence of SGA1 on Aβ(1–40) and Aβ(1–42) aggregation by ThT fluorescence assay was performed at a concentration of 25 μM Aβ(1–40) and Aβ(1–42) at 37 °C for 5 to 7 days, across a broad range of SG inhibitor concentration to determine the IC50 inhibitory ligand:Aβ ratio [33]. For SGA1, the IC50 ligand:Aβ(1–40) ratio occurred at 0.2, while the control, N-methylated KLVFF peptide (A ...

Aβ(1–42) [4] = conditions: ThT fluorescence, 25 μM Aβ(1–42), 37 °C, 5 to 7 days; ref [33]; cited from earlier work
Method: as §2, with “[33].” for “[33]. For SGA1, the IC50 ligand:Aβ(1–40) ratio occurred at 0.2, while the control, N-methylated KLVFF peptide (A ...”

Aβ(1–42) [5] = conditions: AFM, 110 μM Aβ(1–42), 1:1 ratio, 1, 6 and 24 h on mica, vs Aβ-only control; ref [21]; cited from earlier work
Method: In Hane et al., solutions of Aβ(1–42) (prepared by the Fezoui method) with and without SGA1 were deposited onto freshly cleaved mica at 1:1 ratio with a final concetration of 110 μM Aβ(1–42), and then incubated for 1, 6 and 24 h, before being washed, dried and than imaged by AFM (Figure 4, adapted with permission).

| Compound | IC50 (HT22 cells [1]) [µM] | HT22 cell viability, inhibitor alone (HT22 cells [1]) | HT22 cell viability with Aβ(1–42) and myristoylated inhibitor (HT22 cells [2]) | Shift of Aβ binding probability across unbinding force distribution [3] | Binding probability of Aβ [3] | IC50 ligand:Aβ(1–40) ratio (Aβ(1–40)) | IC50 inhibitory ligand/Aβ1–42 ratio (Aβ(1–42) [4]) | Number of Aβ binding events ([3]; SMFS proof-of-concept study, ref [21]) | Fibril length of Aβ(1–42) aggregates (Aβ(1–42) [5]) | Effect on Aβ(1–42) toxicity (HT22 cells [2]; 5 µM Aβ(1–42), Aβ/SG 5:1, 2:1, 1:1, 1:2, 24 h, n = 3, vs Aβ-treated group) |
| --- | --- | --- | --- | --- | --- | --- | --- | --- | --- | --- |
| CCCCCCCCCCCCCC(=O)N[C@@H](CCN)C(=O)N[C@@H](CCCN)C(=O)N(C)[C@@H](CC(C)C)C(=O)N[C@@H](Cc1ccccc1)C(=O)N(C)[C@@H](Cc1ccccc1)C(=O)N[C@@H](CC(C)C)C(=O)N1CCC[C@H]1C(=O)NCCC(=O)O [Myr-SGA1] (Myristoyl-[Dab][Orn][NMeL]F[NMeF]LP[βAla]-OH; N-terminus and C-terminus assumed) | ~7.5 | significant reductions in HT22 cell viability at 5 and 10 µM | below 30% | decreased the binding probability at higher force | reduced the binding probability of Aβ | – | – | – | – | – |
| CCCCCCCCCCCCCC(=O)N[C@@H](CCN)C(=O)N[C@@H](CCCN)C(=O)N(C)[C@@H](CC(C)C)C(=O)N[C@@H](Cc1ccccc1)C(=O)N(C)[C@@H](Cc1ccccc1)C(=O)N[C@@H](CC(C)C)C(=O)N[C@@H](C)C(=O)N[C@@H](CCC(=O)O)C(N)=O [Myr-SGA3] (Myristoyl-[Dab][Orn][NMeL]F[NMeF]LAE-NH2; C-terminus assumed) | ~7.5 | significant reductions in HT22 cell viability at 5 and 10 µM | below 30% | – | – | – | – | – | – | – |
| CC(=O)N[C@@H](CCN)C(=O)N[C@@H](CCCN)C(=O)N(C)[C@@H](CC(C)C)C(=O)N[C@@H](Cc1ccccc1)C(=O)N(C)[C@@H](Cc1ccccc1)C(=O)N[C@@H](CC(C)C)C(=O)N1CCC[C@H]1C(=O)NCCC(=O)O [SGA1] (Ac-[Dab][Orn][NMeL]F[NMeF]LP[βAla]-OH; N-terminus and C-terminus assumed) | – | no significant reduction in cell viability was observed | – | – | – | 0.2 | 0.5 | decreases the number Aβ binding events in a concentration dependent manner | greatly reduced | – |
| CC(=O)N[C@@H](CCN)C(=O)N[C@@H](CCCN)C(=O)N(C)[C@@H](CC(C)C)C(=O)N[C@@H](Cc1ccccc1)C(=O)N(C)[C@@H](Cc1ccccc1)C(=O)N[C@@H](CC(C)C)C(=O)N[C@@H](C)C(=O)N[C@@H](CCC(=O)O)C(N)=O [SGA3] (Ac-[Dab][Orn][NMeL]F[NMeF]LAE-NH2; N-terminus and C-terminus assumed) | – | no significant reduction in cell viability was observed | – | more uniformly reduced binding probability across the unbinding force distribution | reduced the binding probability of Aβ | – | – | – | – | – |
| Glu-Ala-(Me)Phe-Phe-(Me)Phe-Leu-Orn-Daba [SGC1] | – | – | – | increased the binding probability at higher force | reduced the binding probability of Aβ | – | – | – | – | no statistically significant effect |
